Test results: ChEMBL document CHEMBL4138123, “Design, synthesis and biological evaluation of novel pyrazolochalcones as potential modulators of PI3K/Akt/mTOR pathway and inducers of apoptosis in breast cancer cells” (Eur J Med Chem, 2017)

Columns and labels:
Assay type in all cases: functional
BT-549 = assay: Cytotoxicity against human BT549 cells assessed as cell growth at 0.1 uM after 48 hrs by sulforhodamine B assay relative to control; conditions: BT-549, 48 h, read-out: Activity
RXF 393 = assay: Cytotoxicity against human RXF393 cells assessed as cell growth at 0.01 uM after 48 hrs by sulforhodamine B assay relative to control; conditions: RXF 393, 48 h, read-out: Activity
MDA-MB-435 = assay: Cytotoxicity against human MDA-MB-435 cells assessed as cell growth at 100 uM after 48 hrs by sulforhodamine B assay relative to control; conditions: MDA-MB-435, 48 h, read-out: Activity
UO-31 = assay: Cytotoxicity against human UO31 cells assessed as cell growth at 0.01 uM after 48 hrs by sulforhodamine B assay relative to control; conditions: UO-31, 48 h, read-out: Activity
Malme-3M [1] = assay: Cytotoxicity against human MALME-3M cells assessed as cell growth at 0.1 uM after 48 hrs by sulforhodamine B assay relative to control; conditions: read-out: Activity
SK-OV-3 [2] = assay: Cytotoxicity against human SKOV3 cells assessed as cell growth at 1 uM after 48 hrs by sulforhodamine B assay relative to control; conditions: SK-OV-3, 48 h, read-out: Activity
RPMI-8226 = assay: Cytotoxicity against human RPMI8226 cells assessed as cell growth at 10 uM after 48 hrs by sulforhodamine B assay relative to control; conditions: RPMI-8226, 48 h, read-out: Activity
NCI-H23 = assay: Cytotoxicity against human NCI-H23 cells assessed as cell growth at 100 uM after 48 hrs by sulforhodamine B assay relative to control; conditions: NCI-H23, 48 h, read-out: Activity
KM12 = assay: Cytotoxicity against human KM12 cells assessed as growth inhibition after 48 hrs by sulforhodamine B assay; conditions: KM12, 48 h
HL-60(TB) = assay: Cytotoxicity against human HL-60(TB) cells assessed as growth inhibition after 48 hrs by sulforhodamine B assay; conditions: HL-60, 48 h
CCRF-CEM = assay: Cytotoxicity against human CCRF-CEM cells assessed as cell growth at 100 uM after 48 hrs by sulforhodamine B assay relative to control; conditions: read-out: Activity
MCF7 [3] = assay: Cytotoxicity against human MCF7 cells assessed as growth inhibition after 48 hrs by sulforhodamine B assay; conditions: MCF7, 48 h
SN12C = assay: Cytotoxicity against human SN12C cells assessed as growth inhibition after 48 hrs by sulforhodamine B assay
PC-3 = assay: Cytotoxicity against human PC3 cells assessed as growth inhibition after 48 hrs by sulforhodamine B assay; conditions: PC-3, 48 h
SW-620 [4] = assay: Cytotoxicity against human SW620 cells assessed as cell growth at 0.1 uM after 48 hrs by sulforhodamine B assay relative to control; conditions: SW-620, 48 h, read-out: Activity
A549 = assay: Cytotoxicity against human A549/ATCC cells assessed as cell growth at 10 uM after 48 hrs by sulforhodamine B assay relative to control; conditions: A549, 48 h, read-out: Activity
ACHN [5] = assay: Cytotoxicity against human ACHN cells assessed as growth inhibition after 48 hrs by sulforhodamine B assay
MDA-MB-468 = assay: Cytotoxicity against human MDA-MB-468 cells assessed as cell growth at 1 uM after 48 hrs by sulforhodamine B assay relative to control; conditions: MDA-MB-468, 48 h, read-out: Activity
SR = assay: Cytotoxicity against human SR cells assessed as cell growth at 0.01 uM after 48 hrs by sulforhodamine B assay relative to control; conditions: read-out: Activity
SW-620 [6] = assay: Cytotoxicity against human SW620 cells assessed as cell growth at 100 uM after 48 hrs by sulforhodamine B assay relative to control; conditions: SW-620, 48 h, read-out: Activity
SK-OV-3 [7] = assay: Cytotoxicity against human SKOV3 cells assessed as cell growth at 10 uM after 48 hrs by sulforhodamine B assay relative to control; conditions: SK-OV-3, 48 h, read-out: Activity
UACC-62 = assay: Cytotoxicity against human UACC62 cells assessed as cell growth at 1 uM after 48 hrs by sulforhodamine B assay relative to control; conditions: UACC-62, 48 h, read-out: Activity
786-0 = assay: Cytotoxicity against human 786-0 cells assessed as cell growth at 100 uM after 48 hrs by sulforhodamine B assay relative to control; conditions: 786-0, 48 h, read-out: Activity
SNB-75 = assay: Cytotoxicity against human SNB75 cells assessed as growth inhibition after 48 hrs by sulforhodamine B assay; conditions: SNB-75, 48 h
ACHN [8] = assay: Cytotoxicity against human ACHN cells assessed as cell growth at 100 uM after 48 hrs by sulforhodamine B assay relative to control; conditions: read-out: Activity
K562 = assay: Cytotoxicity against human K562 cells assessed as cell growth at 10 uM after 48 hrs by sulforhodamine B assay relative to control; conditions: K562, 48 h, read-out: Activity
NCI-H460 = assay: Cytotoxicity against human NCI-H460 cells assessed as cell growth at 0.01 uM after 48 hrs by sulforhodamine B assay relative to control; conditions: NCI-H460, 48 h, read-out: Activity
HT-29 = assay: Cytotoxicity against human HT-29 cells assessed as cell growth at 100 uM after 48 hrs by sulforhodamine B assay relative to control; conditions: HT-29, 48 h, read-out: Activity
T47D = assay: Cytotoxicity against human T47D cells assessed as growth inhibition after 48 hrs by sulforhodamine B assay
A498 = assay: Cytotoxicity against human A498 cells assessed as cell growth at 0.1 uM after 48 hrs by sulforhodamine B assay relative to control; conditions: A498, 48 h, read-out: Activity
MCF7 [9] = assay: Cytotoxicity against human MCF7 cells assessed as cell growth at 10 uM after 48 hrs by sulforhodamine B assay relative to control; conditions: MCF7, 48 h, read-out: Activity
UACC-257 = assay: Cytotoxicity against human UACC257 cells assessed as cell growth at 1 uM after 48 hrs by sulforhodamine B assay relative to control; conditions: UACC-257, 48 h, read-out: Activity
SW-620 [10] = assay: Cytotoxicity against human SW620 cells assessed as cell growth at 10 uM after 48 hrs by sulforhodamine B assay relative to control; conditions: SW-620, 48 h, read-out: Activity
Malme-3M [11] = assay: Cytotoxicity against human MALME-3M cells assessed as cell growth at 1 uM after 48 hrs by sulforhodamine B assay relative to control; conditions: read-out: Activity
NCI/ADR-RES [12] = assay: Cytotoxicity against human NCI/ADR-RES cells assessed as cell growth at 0.01 uM after 48 hrs by sulforhodamine B assay relative to control; conditions: read-out: Activity
NCI/ADR-RES [13] = assay: Cytotoxicity against human NCI/ADR-RES cells assessed as cell growth at 100 uM after 48 hrs by sulforhodamine B assay relative to control; conditions: read-out: Activity

COc1ccc(C(=O)/C=C/c2cc(-c3ccc4c(c3)OCO4)n[nH]2)cc1OC
growth at 0.1 µM (BT-549): 99%
growth at 0.01 µM (RXF 393): 98%
growth at 100 µM (MDA-MB-435): -50%
growth at 0.01 µM (UO-31): 86%
growth at 0.1 µM (Malme-3M [1]): 100%
growth at 1 µM (SK-OV-3 [2]): 99%
growth at 10 µM (RPMI-8226): -20%
growth at 100 µM (NCI-H23): -67%
LC50 (KM12): 34.9 µM
TGI (KM12): 9.48 µM
LC50 (HL-60(TB)): > 100 µM
TGI (HL-60(TB)): 11.8 µM
growth at 100 µM (CCRF-CEM): -13%
GI50 (MCF7 [3]): 3.27 µM
LC50 (MCF7 [3]): > 100 µM
TGI (MCF7 [3]): 16.8 µM
LC50 (SN12C): 53.7 µM
TGI (SN12C): 13.6 µM
GI50 (PC-3): 2.58 µM
LC50 (PC-3): > 100 µM
TGI (PC-3): 18.2 µM
growth at 0.1 µM (SW-620 [4]): 95%
growth at 10 µM (A549): 3%
LC50 (ACHN [5]): > 100 µM
TGI (ACHN [5]): 56.5 µM
growth at 1 µM (MDA-MB-468): 85%
growth at 0.01 µM (SR): 90%
growth at 100 µM (SW-620 [6]): -78%
growth at 10 µM (SK-OV-3 [7]): 17%
growth at 1 µM (UACC-62): 98%
growth at 100 µM (786-0): -83%
LC50 (concentration killing 50% of cells) (SNB-75): 27.7 µM
TGI (SNB-75): 7.57 µM
growth at 100 µM (ACHN [8]): -4%
growth at 10 µM (K562): 4%
growth at 0.01 µM (NCI-H460): 101%
growth at 100 µM (HT-29): -44%
GI50 (T47D): 3.23 µM
LC50 (T47D): > 100 µM
TGI (T47D): 26.1 µM
growth at 0.1 µM (A498): 80%
growth at 10 µM (MCF7 [9]): 14%
growth at 1 µM (UACC-257): 93%
growth at 10 µM (SW-620 [10]): -43%
growth at 1 µM (Malme-3M [11]): 106%

COc1cc(-c2cc(/C=C/C(=O)c3ccc(F)c(F)c3)[nH]n2)cc(OC)c1OC
growth at 0.1 µM (BT-549): 105%
growth at 0.01 µM (RXF 393): 94%
growth at 100 µM (MDA-MB-435): -34%
growth at 0.01 µM (UO-31): 90%
growth at 0.01 µM (NCI/ADR-RES [12]): 100%
growth at 0.1 µM (Malme-3M [1]): 90%
growth at 1 µM (SK-OV-3 [2]): 90%
growth at 100 µM (NCI/ADR-RES [13]): -5%
growth at 10 µM (RPMI-8226): -21%
growth at 100 µM (NCI-H23): -27%
LC50 (KM12): > 100 µM
TGI (KM12): 11.4 µM
LC50 (HL-60(TB)): > 100 µM
TGI (HL-60(TB)): 6.03 µM
growth at 100 µM (CCRF-CEM): -4%
LC50 (MCF7 [3]): > 100 µM
TGI (MCF7 [3]): 12.3 µM
LC50 (SN12C): > 100 µM
TGI (SN12C): 25.5 µM
LC50 (PC-3): > 100 µM
TGI (PC-3): 5.72 µM
growth at 0.1 µM (SW-620 [4]): 97%
LC50 (ACHN [5]): > 100 µM
TGI (ACHN [5]): > 100 µM
growth at 1 µM (MDA-MB-468): 79%
growth at 0.01 µM (SR): 100%
growth at 100 µM (SW-620 [6]): 1%
growth at 10 µM (SK-OV-3 [7]): 17%
growth at 1 µM (UACC-62): 88%
growth at 100 µM (786-0): -47%
growth at 10 µM (K562): 2%
growth at 0.01 µM (NCI-H460): 106%
growth at 100 µM (HT-29): -67%
LC50 (T47D): > 100 µM
TGI (T47D): 27 µM
growth at 0.1 µM (A498): 96%
growth at 10 µM (MCF7 [9]): 2%
growth at 1 µM (UACC-257): 72%
growth at 10 µM (SW-620 [10]): 12%
growth at 1 µM (Malme-3M [11]): 97%
